# Reference: patent publication US20060063759A1, “Tricyclic steroid hormone nuclear receptor modulators” (priority 2002, published 2006)
# What was measured:
# [1] = target: T1, glucocorticoid receptor (Homo sapiens, UniProt P04150); assay: Glucocorticoid Receptor Binding Assay ([3H]-dexamethasone, A549 cell extract); settings: [3H]-dexamethasone binding, read-out: GR Ki
# T1 construct: containing 50-200 ug of A549 cell extract and 1.86 nM [^3H]-dexamethasone; host or cells: A549 human lung epithelial cells (sonicated cell extract)
# T1 sequence (P04150 1-777): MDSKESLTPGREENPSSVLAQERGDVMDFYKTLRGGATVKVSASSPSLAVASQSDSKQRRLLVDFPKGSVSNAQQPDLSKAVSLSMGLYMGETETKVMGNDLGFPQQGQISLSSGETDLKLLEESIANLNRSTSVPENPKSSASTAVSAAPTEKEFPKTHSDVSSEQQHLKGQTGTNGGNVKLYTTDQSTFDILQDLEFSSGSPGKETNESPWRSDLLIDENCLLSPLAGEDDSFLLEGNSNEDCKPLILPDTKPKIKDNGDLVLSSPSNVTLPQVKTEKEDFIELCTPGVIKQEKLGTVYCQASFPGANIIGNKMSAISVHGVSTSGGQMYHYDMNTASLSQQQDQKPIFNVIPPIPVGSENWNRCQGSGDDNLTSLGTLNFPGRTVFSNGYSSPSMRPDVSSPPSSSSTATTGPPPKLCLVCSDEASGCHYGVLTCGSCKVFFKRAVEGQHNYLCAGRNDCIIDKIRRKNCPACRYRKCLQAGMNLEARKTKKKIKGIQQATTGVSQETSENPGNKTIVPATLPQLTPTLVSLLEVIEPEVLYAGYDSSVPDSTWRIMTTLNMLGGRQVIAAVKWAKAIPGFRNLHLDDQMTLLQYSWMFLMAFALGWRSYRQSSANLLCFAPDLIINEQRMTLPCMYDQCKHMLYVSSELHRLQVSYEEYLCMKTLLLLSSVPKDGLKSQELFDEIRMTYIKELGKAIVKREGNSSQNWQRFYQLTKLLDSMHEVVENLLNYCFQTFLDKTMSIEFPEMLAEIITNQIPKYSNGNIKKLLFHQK
# How it was run: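 A549 cell extract (50–200 ug) incubated with 1.86 nM [3H]-dexamethasone and test compound for 16 h at 4 °C in Tris-HCl pH 7.2 buffer with glycerol and molybdate. Unbound radioligand removed by dextran-coated charcoal, then supernatant bound counts measured by scintillation.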
# [2] = target: T2, human MR (Homo sapiens, UniProt P08235); assay: Mineralocorticoid Receptor Binding Assay ([3H]-aldosterone); settings: [3H]-aldosterone binding, human MR expressed in Sf9 cells; read-out: MR Ki
# T2 construct: The full length human MR gene is cloned from a human kidney or human brain cDNA library; His tag from the pAcHLT vector (own knowledge); made in house; host or cells: Sf9 insect cells (baculovirus, pAcHLT transfer vector)
# T2 sequence (P08235 1-984): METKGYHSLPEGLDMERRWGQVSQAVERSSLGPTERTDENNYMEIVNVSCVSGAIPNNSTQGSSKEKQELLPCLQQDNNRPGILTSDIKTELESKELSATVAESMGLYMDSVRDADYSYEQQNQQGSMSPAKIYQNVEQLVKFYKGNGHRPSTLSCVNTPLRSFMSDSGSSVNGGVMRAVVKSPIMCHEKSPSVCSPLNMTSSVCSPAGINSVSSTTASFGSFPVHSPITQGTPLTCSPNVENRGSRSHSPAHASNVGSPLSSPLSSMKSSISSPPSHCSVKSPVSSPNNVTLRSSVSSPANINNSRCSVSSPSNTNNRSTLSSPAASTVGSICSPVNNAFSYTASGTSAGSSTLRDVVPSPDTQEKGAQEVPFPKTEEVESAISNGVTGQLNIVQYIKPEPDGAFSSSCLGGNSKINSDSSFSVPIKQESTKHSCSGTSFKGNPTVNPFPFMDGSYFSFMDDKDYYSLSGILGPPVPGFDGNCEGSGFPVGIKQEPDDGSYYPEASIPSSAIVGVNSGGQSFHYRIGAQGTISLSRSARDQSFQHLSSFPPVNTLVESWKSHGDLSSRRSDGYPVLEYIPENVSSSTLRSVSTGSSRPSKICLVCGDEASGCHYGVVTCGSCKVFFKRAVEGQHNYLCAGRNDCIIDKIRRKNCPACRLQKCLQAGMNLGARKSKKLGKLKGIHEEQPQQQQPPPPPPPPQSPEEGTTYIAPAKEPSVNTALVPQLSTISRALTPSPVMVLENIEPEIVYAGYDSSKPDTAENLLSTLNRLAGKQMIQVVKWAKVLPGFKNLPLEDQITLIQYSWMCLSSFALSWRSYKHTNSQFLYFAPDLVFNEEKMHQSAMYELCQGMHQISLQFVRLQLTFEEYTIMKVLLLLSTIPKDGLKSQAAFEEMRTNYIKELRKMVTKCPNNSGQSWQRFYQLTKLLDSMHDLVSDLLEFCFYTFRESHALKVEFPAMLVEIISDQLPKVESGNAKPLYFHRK
# How it was run: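 Lysate supernatant of Sf9 cells expressing full-length human MR (20-25 μg protein) was incubated with 0.5 nM [3H]-aldosterone and test compound in molybdate/Tris/phosphate/glycerol buffer, pH 7.5, ~16 h at 4 °C. Bound ligand was filtered and counted by scintillation; IC50 is the concentration halving [3H]-aldosterone binding.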
Compound,Ki [1] [µM],Ki [2] [µM]
O=c1[nH]c2cc(/C=C3\c4ccc(F)cc4CCc4ncccc43)ccc2s1 [Example 536],< 0.5,< 0.5
CS(=O)(=O)Nc1cccc(CC2c3ccccc3CCc3cccnc32)c1 (centres unmarked) [Example 538],< 0.5,< 0.5
Fc1ccc2c(c1)CCc1ncccc1/C2=C/c1ccccc1C(F)F [Example 539],< 0.5,< 0.5
Fc1ccc2c(c1)CCc1ncccc1/C2=C\c1ccccc1C(F)F [Example 540],< 0.5,< 0.5
Fc1ccc2c(c1)CCc1ncccc1/C2=C/c1cccc(C(F)F)c1 [Example 541],< 1,< 0.5
Fc1ccc2c(c1)CCc1ncccc1/C2=C\c1cccc(C(F)F)c1 [Example 542],< 10,< 0.5
Fc1ccc2c(c1)CCc1ncccc1/C2=C/c1ccc(C(F)F)cc1 [Example 543],< 10,< 0.5
Fc1ccc2c(c1)CCc1ncccc1/C2=C\c1ccc(C(F)F)cc1 [Example 544],< 1,< 0.5
O=c1[nH]c2ccc(/C=C3/c4ccc(F)cc4CCc4nc(Cl)sc43)cc2[nH]1 [Example 549],< 10,< 0.5
Nc1nc2c(s1)C(=Cc1cccc(O)c1)c1ccccc1CC2 [Example 560],< 1,< 0.5
Fc1cccc2c1CCc1ncccc1C2=Cc1cccc(Cl)c1 [Example 575],< 0.5,< 0.5
Fc1ccc2c(c1)CCc1ncccc1/C2=C/c1ccccc1F [Example 578],< 10,< 0.5
Fc1cccc(/C=C2\c3ccc(F)cc3CCc3ncccc32)c1 [Example 579],< 0.5,< 0.5
Fc1ccc(/C=C2\c3ccc(F)cc3CCc3ncccc32)cc1 [Example 580],< 10,< 0.5
Fc1ccc(/C=C2/c3ccc(F)cc3CCc3ncccc32)cc1 [Example 581],< 10,< 0.5
Fc1ccc2c(c1)CCc1ncccc1/C2=C\c1ccccc1F [Example 582],< 10,< 0.5
Fc1cccc(/C=C2/c3ccc(F)cc3CCc3ncccc32)c1 [Example 583],< 10,< 0.5
COC(=O)c1ccc(/C=C2\c3ccc(F)cc3CCc3ncccc32)cc1 [Example 584],< 10,< 1
COC(=O)c1cccc(/C=C2\c3ccc(F)cc3CCc3ncccc32)c1 [Example 585],< 10,< 0.5
COC(=O)c1cccc(/C=C2/c3ccc(F)cc3CCc3ncccc32)c1 [Example 586],< 10,< 0.5
COC(=O)c1ccc(/C=C2/c3ccc(F)cc3CCc3ncccc32)cc1 [Example 587],< 10,< 0.5
COC(=O)c1ccccc1/C=C1\c2ccc(F)cc2CCc2ncccc21 [Example 588],< 0.5,< 0.5
COC(=O)c1ccccc1/C=C1/c2ccc(F)cc2CCc2ncccc21 [Example 589],< 0.5,< 0.5

# Continued, values first:
Ki [1] [µM],Ki [2] [µM],Compound
< 10,< 0.5,CS(=O)(=O)Nc1ccc(/C=C2/c3ccc(F)cc3CCc3ncccc32)cc1 [Example 537]
< 10,< 0.5,CC(=O)Nc1cccc(/C=C2\c3ccc(F)cc3CCc3ncccc32)c1 [Example 545]
< 0.5,< 0.5,CS(=O)(=O)Nc1cccc(/C=C2/c3ccc(F)cc3CCc3nc(C#N)ccc32)c1 [Example 546]
< 0.5,< 0.5,CS(=O)(=O)Nc1cccc(/C=C2\c3ccc(F)cc3CCc3nc(C#N)ccc32)c1 [Example 547]
< 10,< 0.5,CS(=O)(=O)Nc1cc(F)cc(/C=C2\c3ccc(Cl)cc3CCc3cccnc32)c1 [Example 548]
< 0.5,< 0.5,CS(=O)(=O)Nc1cccc(/C=C2\c3ccc(F)cc3CCc3nc(Cl)sc32)c1 [Example 550]
< 0.5,< 0.5,CS(=O)(=O)Nc1cccc(/C=C2/c3ccc(F)cc3CCc3nc(Cl)sc32)c1 [Example 551]
< 0.5,< 0.5,CS(=O)(=O)Nc1cccc(/C=C2/c3ccc(Cl)cc3CCc3ncsc32)c1 [Example 552]
< 0.5,< 0.5,CS(=O)(=O)Nc1cccc(/C=C2\c3ccc(Cl)cc3CCc3ncsc32)c1 [Example 553]
< 1,< 0.5,CS(=O)(=O)Nc1cccc(/C=C2\c3scnc3CCc3cccc(Cl)c32)c1 [Example 554]
< 0.5,< 0.5,CS(=O)(=O)Nc1cccc(/C=C2/c3ccccc3CCc3ncsc32)c1 [Example 555]
< 0.5,< 0.5,CS(=O)(=O)Nc1cccc(/C=C2\c3ccccc3CCc3ncsc32)c1 [Example 556]
< 0.5,< 0.5,CS(=O)(=O)Nc1cccc(/C=C2/c3cccnc3CCc3cccc(F)c32)c1 [Example 557]
< 0.5,< 0.5,CS(=O)(=O)Nc1cccc(/C=C2\c3ccccc3CCc3nc(N)sc32)c1 [Example 559]
< 1,< 0.5,O=c1[nH]c2ccc(/C=C3\c4ccccc4CCc4ncsc43)cc2[nH]1 [Example 561]
< 0.5,< 0.5,O=c1[nH]c2cc(/C=C3\c4ccccc4CCc4ncsc43)ccc2o1 [Example 562]
< 0.5,< 0.5,CS(=O)(=O)Nc1cccc(/C=C2/c3ccc(F)cc3CCc3ncsc32)c1 [Example 563]
< 0.5,< 0.5,CS(=O)(=O)Nc1cccc(/C=C2\c3ccc(F)cc3CCc3ncsc32)c1 [Example 564]
< 10,< 0.5,O=c1[nH]c2ccc(/C=C3\c4ccc(F)cc4CCc4ncsc43)cc2[nH]1 [Example 565]
< 10,< 0.5,O=c1[nH]c2ccc(/C=C3/c4ccc(F)cc4CCc4ncsc43)cc2[nH]1 [Example 566]
< 10,< 0.5,CS(=O)(=O)Nc1cccc(/C=C2\c3cccnc3CCc3c(Cl)cccc32)c1 [Example 567]
< 10,< 0.5,CS(=O)(=O)Nc1cccc(/C=C2/c3ccc(Cl)cc3CCc3ncccc32)c1 [Example 569]
< 1,< 0.5,CS(=O)(=O)Nc1cccc(/C=C2\c3ccc(Cl)cc3CCc3ncccc32)c1 [Example 570]
< 0.5,< 0.5,CS(=O)(=O)Nc1cccc(/C=C2/c3cccnc3CCc3c(Cl)cccc32)c1 [Example 573]
< 0.5,< 0.5,CS(=O)(=O)Nc1cccc(/C=C2\c3cccnc3CCc3c(F)cccc32)c1 [Example 574]
< 10,< 0.5,CS(=O)(=O)Nc1cccc(/C=C2/c3cccnc3CCc3c(F)cccc32)c1 [Example 576]
